Results on 42 molecules are retold here after patent publication US9868746B2, “Substituted 5-aminothieno[2,3-C]pyridazine-6-carboxamide analogs as positive allosteric modulators of the muscarinic acetylcholine receptor M4” (Vanderbilt University, priority 2012, dated 2018).

The target in the assay is T1, mAChR M4 (Homo sapiens, UniProt P08173).
T1 construct: expressed in transfected cells; host or cells: CHO-K1 cells stably transfected with M4 cDNA and chimeric G-protein Gqi5
T1 sequence (P08173 1-479): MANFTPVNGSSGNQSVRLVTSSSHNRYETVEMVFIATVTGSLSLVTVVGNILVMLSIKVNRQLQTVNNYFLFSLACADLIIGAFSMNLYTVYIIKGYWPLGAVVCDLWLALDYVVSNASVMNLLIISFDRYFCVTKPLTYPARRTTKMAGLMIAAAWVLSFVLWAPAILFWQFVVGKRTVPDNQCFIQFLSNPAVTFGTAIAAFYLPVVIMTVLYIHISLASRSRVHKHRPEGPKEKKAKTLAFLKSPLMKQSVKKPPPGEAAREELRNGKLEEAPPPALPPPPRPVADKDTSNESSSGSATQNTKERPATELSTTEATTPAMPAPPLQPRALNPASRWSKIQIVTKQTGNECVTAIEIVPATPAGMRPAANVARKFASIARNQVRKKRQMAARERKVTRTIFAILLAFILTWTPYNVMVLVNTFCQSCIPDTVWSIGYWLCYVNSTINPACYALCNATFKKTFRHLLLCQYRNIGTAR
The experiment in a line: mAChR M4 cell-based functional assay (calcium mobilization, potentiation of EC20 acetylcholine response). The conditions noted are these: for Emax at 30 µM: % ACh maximum at 30 μM; for EC50: mAChR M4 cell-based functional assay, >10,000 estimated for low potency compounds without plateau, read-out: EC50.

For `Cc1nnc2sc(C(=O)N3CC(S(=O)(=O)c4ccc(F)cc4F)C3)c(N)c2c1C` [Example B432], the Emax at 30 µM amounted to 40% and the EC50 was 820 nM.
Take `COc1cccc(S(=O)(=O)C2CN(C(=O)c3sc4nnc(C)c(C)c4c3N)C2)c1` [Example B433]: the Emax at 30 µM was 34% and the EC50 was 590 nM.
With `Cc1nnc2sc(C(=O)N3CC4CN(c5ncccn5)CC4C3)c(N)c2c1C` (stereo not drawn) [Example B434], the Emax at 30 µM was determined as 48% and the 50% effective concentration (EC50) was 1100 nM.
On the same counts, the results for `Cc1nnc2sc(C(=O)NCc3ccc(F)cc3)c(N)c2c1C` [Example B435] are 68% and 180 nM.
On the same counts, the results for `Cc1nnc2sc(C(=O)N3CC4CN(c5ccc(C#N)nc5)CC4C3)c(N)c2c1C` (stereo not drawn) [Example B436] are 49% and 980 nM.
On the same counts, the results for `Cc1nnc2sc(C(=O)N3CC4CN(c5cccc(Br)n5)CC4C3)c(N)c2c1C` (stereo not drawn) [Example B437] are 54% and 98 nM.
On to `Cc1nnc2sc(C(=O)N3CC4CN(c5ccc(C#N)cn5)CC4C3)c(N)c2c1C` (stereo not drawn) [Example B438], for which the Emax at 30 µM was 45% and the EC50 was 170 nM.
On the same counts, the results for `COc1ncc(CNC(=O)c2sc3nnc(C)c(C)c3c2N)cc1F` [Example B439] are 78% and 25 nM.
For `Cc1nnc2sc(C(=O)NCc3ccc(F)nc3)c(N)c2c1C` [Example B440], the Emax at 30 µM was 80% and the EC50 is 190 nM.
On the same counts, the results for `Cc1nnc2sc(C(=O)NCc3ccc(CN4CCOCC4)cc3)c(N)c2c1C` [Example B441] are 79% and 80 nM.
On the same counts, the results for `Cc1nnc2sc(C(=O)N3CC4CN(c5cccc(F)n5)CC4C3)c(N)c2c1C` (stereo not drawn) [Example B442] are 66% and 310 nM.
On the same counts, the results for `Cc1nnc2sc(C(=O)NCc3ccc(C(F)(F)F)nc3)c(N)c2c1C` [Example B443] are 69% and 120 nM.
In the case of `Cc1nnc2sc(C(=O)NCc3ccc(=O)n(C)c3)c(N)c2c1C` [Example B444], the Emax at 30 µM stood at 65% and the EC50 was over 10000 nM.
On the same counts, the results for `Cc1nnc2sc(C(=O)N3CCCn4nccc43)c(N)c2c1C` [Example B445] are 31% and over 10000 nM.
On the same counts, the results for `COc1ccc(CNC(=O)c2sc3nnc(C)c(C)c3c2N)cc1Cl` [Example B446] are 59% and 17 nM.
On the same counts, the results for `Cc1nnc2sc(C(=O)NCc3ccc(-c4cnn(C)c4)cc3)c(N)c2c1C` [Example B447] are 64% and over 10000 nM.
With `Cc1nnc2sc(C(=O)NCc3ccc(Br)cc3)c(N)c2c1C` [Example B448, 5-amino-N-(4-bromobenzyl)-3,4-dimethylthieno[2,3-c]pyridazine-6-carboxamide], the Emax at 30 µM turned out to be 75% and the EC50 is 18 nM.
On the same counts, the results for `Cc1nnc2sc(C(=O)NCc3ccc(N(C)C)cc3)c(N)c2c1C` [Example B449] are 71% and 69 nM.
On the same counts, the results for `Cc1nnc2sc(C(=O)NCc3ccc(S(=O)(=O)N(C)C)cc3)c(N)c2c1C` [Example B450] are 65% and 65 nM.
On the same counts, the results for `Cc1nnc2sc(C(=O)NCc3ccc(C#N)c(F)c3)c(N)c2c1C` [Example B451] are 66% and 340 nM.
As for `Cc1nnc2sc(C(=O)NCc3ccnc(F)c3)c(N)c2c1C` [Example B452], the Emax at 30 µM is 59% and the EC50 was 240 nM.
On the same counts, the results for `Cc1nnc2sc(C(=O)NCc3ccc(-c4cccc5cccnc45)cc3)c(N)c2c1C` [Example B453] are 74% and 240 nM.
On the same counts, the results for `Cc1nnc2sc(C(=O)NCc3ccc(-c4cccnc4F)cc3)c(N)c2c1C` [Example B454] are 66% and 19 nM.
On the same counts, the results for `Cc1nnc2sc(C(=O)NCc3ccc(-c4cc(F)nc(F)c4)cc3)c(N)c2c1C` [Example B455] are 64% and 27 nM.
Take `COc1ncccc1-c1ccc(CNC(=O)c2sc3nnc(C)c(C)c3c2N)cc1` [Example B456]: the Emax at 30 µM was 68% and the EC50 was 99 nM.
On the same counts, the results for `Cc1nnc2sc(C(=O)NCc3ccc(-c4ccncc4)cc3)c(N)c2c1C` [Example B457] are 75% and 19 nM.
Turning to `Cc1cc(-c2ccc(CNC(=O)c3sc4nnc(C)c(C)c4c3N)cc2)cnc1Cl` [Example B458], the Emax at 30 µM is 82% and the EC50 was 32 nM.
On the same counts, the results for `Cc1nnc2sc(C(=O)NCc3ccc(-c4ccc(F)nc4)cc3)c(N)c2c1C` [Example B459] are 88% and 15 nM.
On the same counts, the results for `Cc1nnc2sc(C(=O)NCc3ccc(-c4cccs4)cc3)c(N)c2c1C` [Example B460] are 76% and 28 nM.
On the same counts, the results for `Cc1nnc2sc(C(=O)NCc3ccc(-c4ccnc(F)c4)cc3)c(N)c2c1C` [Example B461] are 84% and 23 nM.
As to `Cc1nnc2sc(C(=O)NCc3ccc(-c4cncnc4)cc3)c(N)c2c1C` [Example B462], the Emax at 30 µM is 65% and the EC50 is 38 nM.
On the same counts, the results for `Cc1nnc2sc(C(=O)NCc3ccc(-c4ccc5occc5c4)cc3)c(N)c2c1C` [Example B463] are 70% and 150 nM.
`Cc1nnc2sc(C(=O)NCc3ccc(-c4cccnc4)cc3)c(N)c2c1C` [Example B464]: the Emax at 30 µM worked out at 63% and the EC50 is 11 nM.
Turning to `Cc1nnc2sc(C(=O)NCc3ccc([S+]([O-])C(F)F)c(F)c3)c(N)c2c1C` (stereo not drawn) [Example B465], the Emax at 30 µM was 61% and the EC50 is 15 nM.
On the same counts, the results for `Cc1nnc2sc(C(=O)NCc3ccn(C)c(=O)c3)c(N)c2c1C` [Example B466] are 60% and 1200 nM.
On the same counts, the results for `Cc1nnc2sc(C(=O)NCc3ccnc(C#N)c3)c(N)c2c1C` [Example B467] are 69% and 1200 nM.
On the same counts, the results for `Cc1nnc2sc(C(=O)NCc3ccc(S(=O)(=O)C(F)F)c(F)c3)c(N)c2c1C` [Example B468] are 85% and 16 nM.
As to `Cc1nnc2sc(C(=O)NCc3cccc(-c4ccccc4)c3)c(N)c2c1C` [Example B469], the Emax at 30 µM was 64% and the EC50 was 430 nM.
On the same counts, the results for `Cc1ccc(CNC(=O)c2sc3nnc(C)c(C)c3c2N)nc1` [Example B470] are 48% and 510 nM.
On the same counts, the results for `Cc1nnc2sc(C(=O)NCc3ccc(Br)cn3)c(N)c2c1C` [Example B471] are 60% and 390 nM.
On the same counts, the results for `Cc1nnc2sc(C(=O)NCc3ccc(-c4ccccc4)cc3)c(N)c2c1C` [Example B472] are 64% and 230 nM.
Take `Cc1nnc2sc(C(=O)NCc3ccc(-c4ccc5[nH]ncc5c4C)cc3)c(N)c2c1C` [Example B473]: the Emax at 30 µM is 61% and the EC50 was 89 nM.
